From patent US20180244660A1, “CYCLOPROPYLDERIVATIVES AND THEIR USE AS KINASE INHIBITORS” (Karyopharm Therapeutics Inc., priority 2015, published 2018)
pIC50: −log10 of the molar value.

Tests used:
MS751 cells = test: MTT cell proliferation assay, MS751 cells; assay type: cell-based, human; conditions: Homo sapiens, incubation approximately 64-72 hours, read-out: MTT Assay IC50 MS 751
Method: (§1) The MTT cell proliferation assay was used to study the cytotoxic properties of the compounds. The assay was performed according to the method described by Roche Molecular Biochemicals, with minor modifications. The assay is based on the cleavage of the tetrazolium salt, MTT, in the presence of an electron-coupling reagent. The water-insoluble formazan salt produced must be solubilized in an additional step. Cells grown in a 96-well tissue culture plate were incubated with the MTT solution for approximately 4 hours. After this incubation period, a water-insoluble formazan dye formed. After solubilization, the formazan dye was quantitated using a scanning multi-well spectrophotometer (ELISA reader). […] The cells were seeded at 5,000-10,000 cells in each well of 96-well plate in 100 μL of fresh culture medium and were allowed to attach overnight. The stock solutions of the compounds were diluted in 100 μL cell culture medium to obtain eight concentrations of each test compound, ranging from 1 nM to 30 μM. […] All optical densities were measured at 490 nm using a Vmax Kinetic Microplate Reader (Molecular Devices). In most cases, the assay was performed in duplicate and the results were presented as a mean percent inhibition to the negative control+SE. The following formula was used to calculate the percent of inhibition: Inhibition (%)=(1−(ODo/OD))×100.
(§2) The compounds were tested against MS751, Z138 and 3T3 cells. The MS751 cell line is derived from a metastasis to lymph node of human cervix from a patient diagnosed with squameous cell carcinoma of the cervix. The Z138 cell line is a mature B-cell acute lymphoblastic leukemia cell line derived from a patient with chronic lumphocytic leukemia. 3T3 cells are standard fibroblast cells; they were originally isolated from Swiss mouse embryo tissue.

3T3 cells = test: MTT cell proliferation assay, 3T3 cells; assay type: cell-based, mouse; conditions: Mus musculus, NIH3T3; 3T3 fibroblast cells; incubation approximately 64-72 hours
Method: as §1, §2

Z138 cells = test: MTT cell proliferation assay, Z138 cells; assay type: cell-based, human; conditions: Homo sapiens, Z-138, incubation approximately 64-72 hours
Method: as §1, §2

For Nc1ccc([C@H]2C[C@@H]2C(=O)NCc2cc3cc(-c4ccc(C(=O)N5CCC(F)(F)CC5)cc4)cc(-c4ccc(F)cc4)c3s2)cn1 [Compound K015, (1S,2S)-2-(6-aminopyridin-3-yl)-N—((5-(4-(4,4-difluoropiperidine-1-carbonyl)phenyl)-7-(4-fluorophenyl)benzo[b]thiophen-2-yl)methyl)cyclopropanecarboxamide], the pIC50 (MS751 cells) was 5.30 to 6.00, the pIC50 (3T3 cells) was under 5.00 and the pIC50 (Z138 cells) was 5.30 to 6.00.

Cn1c(CNC(=O)[C@H]2C[C@@H]2c2ccc(N)nc2)cc2cc(-c3ccc(C(=O)N4CCC(F)(F)CC4)cc3)cc(-c3ccc(F)cc3)c21 [Compound K023, (1S,2S)-2-(6-aminopyridin-3-yl)-N—((5-(4-(4,4-difluoropiperidine-1-carbonyl)phenyl)-7-(4-fluorophenyl)-1-methyl-1H-indol-2-yl)methyl)cyclopropanecarboxamide] gave a pIC50 (MS751 cells) of 5.30 to 6.00, a pIC50 (3T3 cells) of under 5.00 and a pIC50 (Z138 cells) of 5.30 to 6.00.

In the case of Nc1ccc([C@H]2C[C@@H]2C(=O)NCc2cnc(-c3ccc(-c4ccc(C(=O)N5CC(F)(F)C5)cc4)cc3C(F)(F)F)o2)cn1 [Compound K025, (1S,2S)-2-(6-aminopyridin-3-yl)-N—((2-(4′-(3,3-difluoroazetidine-1-carbonyl)-3-(trifluoromethyl)biphenyl-4-yl)oxazol-5-yl)methyl)cyclopropanecarboxamide], the pIC50 (MS751 cells) was 5.30 to 6.00, the pIC50 (3T3 cells) was under 5.00 and the pIC50 (Z138 cells) was 5.30 to 6.00.

In the case of Nc1ccc([C@H]2C[C@@H]2C(=O)NCc2cc3cc(-c4ccc(C(=S)N5CCC(F)(F)CC5)cc4)cc(-c4ccc(F)cc4)c3o2)cn1 [Compound K013, (1S,2S)-2-(6-aminopyridin-3-yl)-N—((5-(4-(4,4-difluoropiperidine-1-carbonothioyl)phenyl)-7-(4-fluorophenyl)benzofuran-2-yl)methyl)cyclopropanecarboxamide], the pIC50 (MS751 cells) was over 6.00, the pIC50 (3T3 cells) was 5.30 to 6.00 and the pIC50 (Z138 cells) was over 6.00.

For Nc1ccc([C@H]2C[C@@H]2C(=O)NCc2cc3cc(-c4ccc(C(=O)N5CCC(F)(F)CC5)cc4)cc(-c4cccc(F)c4)c3o2)cn1 [Compound K014, (1S,2S)-2-(6-aminopyridin-3-yl)-N—((5-(4-(4,4-difluoropiperidine-1-carbonyl)phenyl)-7-(3-fluorophenyl)benzofuran-2-yl)methyl)cyclopropanecarboxamide], the pIC50 (MS751 cells) was over 6.00, the pIC50 (3T3 cells) was 5.30 to 6.00 and the pIC50 (Z138 cells) was over 6.00.

[2H]c1c(CNC(=O)[C@H]2C[C@@H]2c2ccc(N)nc2)oc2c(-c3ccc(F)cc3)cc(-c3ccc(C(=O)N4CC(F)C4)cc3)cc12 [Compound K026, (1S,2S)-2-(6-aminopyridin-3-yl)-N—((3-deutero-5-(4-(3-fluoroazetidine-1-carbonyl)phenyl)-7-(4-fluorophenyl)benzofuran-2-yl)methyl)cyclopropanecarboxamide] was tested, and the pIC50 (MS751 cells) was over 6.00, the pIC50 (3T3 cells) was 5.30 to 6.00 and the pIC50 (Z138 cells) was over 6.00.

Work on Nc1ccc([C@H]2C[C@@H]2C(=O)NCc2cc3cc(-c4ccc(C(=O)N5CCC(F)(F)CC5)cc4)cc(C(F)(F)F)c3o2)cn1 [Compound K007, (1S,2S)-2-(6-aminopyridin-3-yl)-N—((5-(4-(4,4-difluoropiperidine-1-carbonyl)phenyl)-7-(trifluoromethyl)benzofuran-2-yl)methyl)cyclopropanecarboxamide] yielded a pIC50 (MS751 cells) of 5.30 to 6.00, a pIC50 (3T3 cells) of under 5.00 and a pIC50 (Z138 cells) of 5.30 to 6.00.

Work on Nc1ccc([C@H]2C[C@@H]2c2nc(-c3cc4cc(-c5ccc(C(=O)N6CC(F)C6)cc5)cc(-c5ccc(F)cc5)c4o3)co2)cn1 [Compound K029, (4-(2-(2-((1S,2S)-2-(6-aminopyridin-3-yl)cyclopropyl)oxazol-4-yl)-7-(4-fluorophenyl)benzofuran-5-yl)phenyl)(3-fluoroazetidin-1-yl)methanone] yielded a pIC50 (MS751 cells) of 5.30 to 6.00, a pIC50 (3T3 cells) of under 5.00 and a pIC50 (Z138 cells) of 5.30 to 6.00.

In the case of Nc1ccc(C2CC2C(=O)NCCCOc2cc(-c3ccc(C(=O)N4CCC(F)(F)CC4)cc3)cc(C(F)(F)F)c2)cn1 (stereo not drawn) [Compound K002, 2-(6-aminopyridin-3-yl)-N—(3-(4′-(4,4-difluoropiperidine-1-carbonyl)-5-(trifluoromethyl)biphenyl-3-yloxy)propyl)cyclopropanecarboxamide], the pIC50 (MS751 cells) was over 6.00, the pIC50 (3T3 cells) was 5.30 to 6.00 and the pIC50 (Z138 cells) was over 6.00.
